Source: article PMC8097335, “A High‐Affinity Calmodulin‐Binding Site in the CyaA Toxin Translocation Domain is Essential for Invasion of Eukaryotic Cells” (Advanced Science, 2021)

Assays:
[1] = tested on: adenylate cyclase (AC384GK, catalytic domain of CyaA); assay: CaM-dependent adenylate cyclase activity with or without calmidazolium; format: biochemical, Bordetella pertussis; conditions: CDZ 10 µM, assayed in the presence of 1 µM CaM
Description: (§1) T PCK-treated trypsin (Millipore Sigma, Burlington, MA, USA) for 10 min at 30°C to digest the adenylate cyclase that remained at the external surface of the erythrocytes. A 5-fold excess of soybean trypsin inhibitor was added and cells were washed with buffer A and lysed with 0.1% Tween 20. The activity protected from trypsin digestion corresponds to the internalized toxin. Activities are expressed as percentages of total toxin added to the erythrocytes (taken as 100%) and represent average values from at least three independent measurements. One unit of CyaA activity corresponds to 1 μmol of cAM P formed per min at 30°C and pH 8.0. The bound and internalized AC activities measured with the CyaA recombinant proteins were normalized to that of the WT CyaA toxin. […]
(§2) then resuspended in cold buffer A plus 2 mM CaCl2 and split in two fractions. […] After addition of soybean trypsin inhibitor, the cells were washed with buffer A then lysed with 0.1% Tween 20 and the internalized AC activity protected from trypsin digestion was measured and expressed as a percentage of bound AC activity. […]
(§3) Tryptophan fluorescence is used for the SEC profiles because this allows monitoring the […]
Figure S15: CaM-dependent activation of AC with or without calmidazolium (C D Z ) . […] Th e adenylate cyclase activity is expressed as mol of cAMP per sec per mol of AC384GK. […]

[2] = biological target: holo-CaM; conditions: cited from earlier work
[3] = tested on: CaM; assay: Size exclusion chromatography of P454, H and AC364 with CaM in the presence of CDZ; format: binding; conditions: SEC, buffer B, CaM 15 µM, CDZ 40 µM, tryptophan fluorescence
Description: T PCK-treated trypsin (Millipore Sigma, Burlington, MA, USA) for 10 min at 30°C to digest the adenylate cyclase that remained at the external surface of the erythrocytes. A 5-fold excess of soybean trypsin inhibitor was added and cells were washed with buffer A and lysed with 0.1% Tween 20. The activity protected from trypsin digestion corresponds to the internalized toxin. Activities are expressed as percentages of total toxin added to the erythrocytes (taken as 100%) and represent average values from at least three independent measurements. One unit of CyaA activity corresponds to 1 μmol of cAM P formed per min at 30°C and pH 8.0. The bound and internalized AC activities measured with the CyaA recombinant proteins were normalized to that of the WT CyaA toxin.
For the CyaA intoxication experiments in the presence of calmidazolium (CDZ), in order to minimize the cell exposure to this potent CaM inhibitor, we performed a two-step intoxication assay as described originally by Rogel and Hanski 19. For this, the erythrocytes (5 x 10^8 cells/mL) were in a first step incubated with CyaA (1 μg/mL, 5.6 nM) in buffer A plus 2 mM CaCl2 at 4 °C for 30 min. In these conditions, the toxin can bind to the cell membrane but cannot translocate across membrane 19. […]
as §2
The SEC experiments were performed on a TSKgel G3000SW 7.5 mm ID * 30 cm - column equilibrated in buffer B at a flow rate of 0.6 mL/min at RT. The elution profiles were measured by absorbance at 280 nm, conductivity and by tryptophan fluorescence on a FP750 fluorometer (Ex.: 280 nm; Em.: 340 nm; bandwidths 10/10 nm ) equipped with a on -line cell .
as §3
weak fluorescence signal. […]
fluorescence signal. […]

[4] = tested on: sheep erythrocytes; assay: Two-step CyaA intoxication assay with or without calmidazolium; format: cell-based; conditions: CyaA […] bound at 4 °C 30 min, 10 μM CDZ added just prior to shift from 4 to 37 °C; 2, 5, 10 min; three independent replicates
Description: as §1, §2, §3

[5] = biological target: CaM; conditions: quoted without reference; read-out: Kd of AC:CaM; cited from earlier work

Compound | Effect on AC enzymatic activity [1] | Ki [2] | Effect of CDZ on CaM association with the AC domain ([3]; AC364 10 µM) | Effect of CDZ on the H:CaM complex ([3]; H 10 µM) | Effect of CDZ on CaM association with P454 ([3]; P454 10 µM) | Amount of internalized AC with CDZ [4] | Kd [5]
Clc1ccc(C(c2ccc(Cl)cc2)n2cc[n+](CC(OCc3ccc(Cl)cc3Cl)c3ccc(Cl)cc3Cl)c2)cc1 (stereo not shown) [CDZ, Calmidazolium chloride] | no inhibitory effect | 10 to 50 nM | not with the AC domain | partially inhibited | can specifically inhibit | drastically reduced | 
AC: N-terminal adenyl cyclase catalytic domain of CyaA, first 364 residues |  |  |  |  |  |  | ~0.1 nM
